Data published in patent US20200222531A1, “METHODS OF POPULATING PRECIPITATED PARTICLES OF A MODIFIED OR SYNTHESIZED SUBSTANCE IN A TISSUE” (priority 2010, published 2020).

Assay: Solubility of urushiol in 95% ethanol and in water
Assay type: physicochemical
Text: The poison ivy allergen, urushiol, is soluble in 95% ethanol but insoluble in water. Intramuscular injection of urushiol in small volumes of 95% ethanol results in precipitation of large numbers of small insoluble particles as the ethanol is rapidly diluted by interstitial or tissue fluid, resulting in a […] enhancement of tolerogenesis per mg administered urushiol. As the most practical way to make an Ara h2 vaccine with the solubility properties needed to exploit the benefit of this delivery system may be a derivative of a process already known to enhance tolerogenesis, the inventors have the opportunity to see if the synergistic application of two methods of tolerogenesis enhancement yields a sufficiently high ratio of tolerogenicity to allergenicity to constitute a predictably safe and effective treatment for peanut allergy.

In the case of urushiol, the “solubility in 95% ethanol” value (95% ethanol) is reported as “soluble” and the solubility in water (water) is reported as “insoluble”.
